Among the data in patent US20250064941A1, “SIGLEC LIGANDS, CONJUGATES, AND METHODS OF USE THEREOF” (Osprey Biopharmaceuticals, Inc., priority 2023, published 2025) are Kd values, retold here.

One assay deals with cynomolgus Siglec-2/CD22 (Macaca fascicularis, UniProt A0A2K5WCZ6). In words: biochemical. The class given is binding. The conditions noted are these: SPR, steady-state analysis; read-out: Affinity cyno CD22. The procedure, abridged:
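SPR with desialylated (SialoExo, 4 h, 37° C.) cynomolgus CD22 amine-coupled to a CM5 chip. Running buffer 10 mM HEPES, 150 mM NaCl, 0.05% Tween-20, pH 7.5, 1% DMSO, with solvent correction; 120 s dissociation. Affinities from steady-state analysis.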

Assay [1] deals with T1, human Siglec-2/CD22 protein (Homo sapiens, UniProt P20273).
T1 construct: purchased Acro Biosystems SI2-H82E3
T1 sequence (P20273 20-847): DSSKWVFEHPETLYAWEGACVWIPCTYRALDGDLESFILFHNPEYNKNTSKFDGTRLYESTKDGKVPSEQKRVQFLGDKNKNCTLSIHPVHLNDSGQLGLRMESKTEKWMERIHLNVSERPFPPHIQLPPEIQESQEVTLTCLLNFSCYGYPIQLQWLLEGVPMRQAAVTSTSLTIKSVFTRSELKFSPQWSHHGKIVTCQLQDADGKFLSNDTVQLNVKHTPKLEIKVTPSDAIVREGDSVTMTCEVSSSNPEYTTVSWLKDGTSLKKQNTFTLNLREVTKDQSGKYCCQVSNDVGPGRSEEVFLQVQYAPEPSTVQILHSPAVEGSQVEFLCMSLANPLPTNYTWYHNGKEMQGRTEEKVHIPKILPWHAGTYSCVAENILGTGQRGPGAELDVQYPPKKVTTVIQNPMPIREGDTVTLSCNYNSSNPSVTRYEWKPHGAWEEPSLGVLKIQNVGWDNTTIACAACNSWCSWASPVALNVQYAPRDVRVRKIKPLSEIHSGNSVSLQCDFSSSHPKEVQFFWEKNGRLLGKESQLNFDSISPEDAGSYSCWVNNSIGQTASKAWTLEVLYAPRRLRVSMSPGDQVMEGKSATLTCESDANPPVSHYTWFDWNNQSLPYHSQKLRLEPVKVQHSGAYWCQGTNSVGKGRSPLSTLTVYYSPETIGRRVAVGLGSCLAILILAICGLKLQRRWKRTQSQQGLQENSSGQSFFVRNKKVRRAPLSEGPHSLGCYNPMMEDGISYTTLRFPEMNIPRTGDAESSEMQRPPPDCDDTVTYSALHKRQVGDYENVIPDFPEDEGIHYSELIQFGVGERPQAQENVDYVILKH
In words: SPR binding affinity to human CD22. The conditions noted are these: steady-state analysis. A digest of the protocol:
(§1)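 Steady-state fits gave the affinities. Before capture on a streptavidin surface, biotinylated CD22 had native sialic acids stripped (SialoExo, 4 hours, 37° C.). Running buffer: 10 mM HEPES pH 7.5, 150 mM NaCl, 0.05% Tween-20, 1% DMSO, with DMSO solvent correction.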
A general note: SPR reads the build-up and loss of mass on a sensor chip optically.

Assay [2] has as its target T2, mouse Siglec-2-Fc-Avi (CD22) (Mus musculus, UniProt P35329).
T2 construct: made in house
T2 sequence (P35329 22-708 limits assumed): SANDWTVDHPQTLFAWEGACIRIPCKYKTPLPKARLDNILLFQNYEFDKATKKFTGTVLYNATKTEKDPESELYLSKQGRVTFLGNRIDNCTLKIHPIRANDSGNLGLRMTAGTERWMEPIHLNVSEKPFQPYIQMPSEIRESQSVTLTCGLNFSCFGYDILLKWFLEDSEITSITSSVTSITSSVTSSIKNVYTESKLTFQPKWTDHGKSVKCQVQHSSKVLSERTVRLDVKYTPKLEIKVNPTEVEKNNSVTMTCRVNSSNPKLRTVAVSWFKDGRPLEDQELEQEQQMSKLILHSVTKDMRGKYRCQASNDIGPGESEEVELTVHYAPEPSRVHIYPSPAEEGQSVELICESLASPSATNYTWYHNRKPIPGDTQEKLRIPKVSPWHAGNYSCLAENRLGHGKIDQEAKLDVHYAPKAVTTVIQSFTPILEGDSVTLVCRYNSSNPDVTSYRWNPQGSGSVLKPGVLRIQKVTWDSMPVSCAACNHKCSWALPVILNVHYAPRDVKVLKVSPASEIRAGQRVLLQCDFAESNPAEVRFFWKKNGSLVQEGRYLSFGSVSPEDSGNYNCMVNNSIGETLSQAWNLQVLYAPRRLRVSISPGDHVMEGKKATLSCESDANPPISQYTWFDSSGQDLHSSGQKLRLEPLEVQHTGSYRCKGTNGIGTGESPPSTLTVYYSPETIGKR
In words: SPR binding affinity to mouse CD22. The conditions noted are these: steady-state analysis. The procedure, abridged: as §1

Sequence of cynomolgus Siglec-2/CD22 (A0A2K5WCZ6 entry or part of it): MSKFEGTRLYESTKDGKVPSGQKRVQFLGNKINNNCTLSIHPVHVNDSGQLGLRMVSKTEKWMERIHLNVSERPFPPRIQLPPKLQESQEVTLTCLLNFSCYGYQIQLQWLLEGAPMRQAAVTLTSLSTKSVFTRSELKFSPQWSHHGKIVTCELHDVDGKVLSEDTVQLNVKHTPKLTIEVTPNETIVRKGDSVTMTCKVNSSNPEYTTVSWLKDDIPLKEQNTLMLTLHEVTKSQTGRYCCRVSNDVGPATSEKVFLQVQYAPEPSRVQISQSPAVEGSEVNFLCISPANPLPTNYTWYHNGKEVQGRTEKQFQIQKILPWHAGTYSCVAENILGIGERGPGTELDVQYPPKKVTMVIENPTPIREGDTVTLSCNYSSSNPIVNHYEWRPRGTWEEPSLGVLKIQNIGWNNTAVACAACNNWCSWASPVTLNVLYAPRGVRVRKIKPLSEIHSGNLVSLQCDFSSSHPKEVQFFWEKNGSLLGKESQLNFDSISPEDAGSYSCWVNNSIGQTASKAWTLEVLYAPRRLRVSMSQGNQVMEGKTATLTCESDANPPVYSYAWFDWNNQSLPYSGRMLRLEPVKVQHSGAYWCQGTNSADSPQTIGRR

`C#CCCCCCCO[C@]1(C(=O)O)C[C@H](O)[C@@H](NC(=O)CO)[C@H]([C@H](O)[C@H](O)CNC(=O)C(F)(F)c2ccccc2)O1` [Compound 42, (2R,4S,5R,6R)-6-((1R,2R)-3-(2,2-difluoro-2-phenylacetamido)-1,2-dihydroxypropyl)-4-hydroxy-5-(2-hydroxyacetamido)-2-(oct-7-yn-1-yloxy) tetrahydro-2H-pyran-2-carboxylic acid]: the results for the Kd (on cynomolgus Siglec-2/CD22; in assay [1]; in assay [2]) were under 1 µM, under 1 µM and 1 to 10 µM, respectively.

Take `C#CCCOc1ccc(CO[C@]2(C(=O)O)C[C@H](O)[C@@H](NC(=O)CO)[C@H]([C@H](O)[C@H](O)CNC(=O)Cc3cccc(-c4ccc(O)cc4)c3)O2)cc1` [Compound 44, (2R,4S,5R,6R)-2-((4-(but-3-yn-1-yloxy)benzyl)oxy)-6-((1R,2R)-1,2-dihydroxy-3-(2-(4′-hydroxy-[1,1′-biphenyl]-3-yl)acetamido)propyl)-4-hydroxy-5-(2-hydroxyacetamido)tetrahydro-2H-pyran-2-carboxylic acid]: the figures for the Kd (on cynomolgus Siglec-2/CD22; in assay [1]; in assay [2]) were 1 to 10 µM, under 1 µM and 1 to 10 µM, respectively.

Consider `C#CCCOc1ccc(CO[C@]2(C(=O)O)C[C@H](O)[C@@H](NC(=O)CO)[C@H]([C@H](O)[C@H](O)CNC(=O)Cc3cccc(-c4cccc(O)c4)c3)O2)cc1` [Compound 45, (2R,4S,5R,6R)-2-((4-(but-3-yn-1-yloxy)benzyl)oxy)-6-((1R,2R)-1,2-dihydroxy-3-(2-(3′-hydroxy-[1,1′-biphenyl]-3-yl)acetamido)propyl)-4-hydroxy-5-(2-hydroxyacetamido)tetrahydro-2H-pyran-2-carboxylic acid], for which the Kd at cynomolgus Siglec-2/CD22 was 1 to 10 µM; in assay [1], under 1 µM; in assay [2] it was 1 to 10 µM.

Take `C#CCCOc1ccc(CO[C@]2(C(=O)O)C[C@H](O)[C@@H](NC(=O)CO)[C@H]([C@H](O)[C@H](O)CNC(=O)Cc3cccc(-c4ccccc4O)c3)O2)cc1` [Compound 46, (2R,4S,5R,6R)-2-((4-(but-3-yn-1-yloxy)benzyl)oxy)-6-((1R,2R)-1,2-dihydroxy-3-(2-(2′-hydroxy-[1,1′-biphenyl]-3-yl)acetamido)propyl)-4-hydroxy-5-(2-hydroxyacetamido)tetrahydro-2H-pyran-2-carboxylic acid]: the Kd at cynomolgus Siglec-2/CD22 was 1 to 10 µM; in assay [1], under 1 µM; in assay [2], 1 to 10 µM.

On to `C#CCOc1ccc(CO[C@]2(C(=O)O)C[C@H](O)[C@@H](NC(=O)CO)[C@H]([C@H](O)[C@H](O)CNC(=O)Cc3ccc(-c4ccc(O)cc4)c(Cl)c3)O2)cc1` [Compound 47, (2R,4S,5R,6R)-6-((1R,2R)-3-(2-(2-chloro-4′-hydroxy-[1,1′-biphenyl]-4-yl)acetamido)-1,2-dihydroxypropyl)-4-hydroxy-5-(2-hydroxyacetamido)-2-((4-(prop-2-yn-1-yloxy)benzyl)oxy)tetrahydro-2H-pyran-2-carboxylic acid], for which the Kd (on cynomolgus Siglec-2/CD22; in assay [1]; in assay [2]) was under 1 µM throughout.

`C#CCOc1ccc(CO[C@]2(C(=O)O)C[C@H](O)[C@@H](NC(=O)CO)[C@H]([C@H](O)[C@H](O)CNC(=O)Cc3ccc(-c4ccc(F)cc4)cc3)O2)cc1` [Compound 48, (2R,4S,5R,6R)-6-((1R,2R)-3-(2-(4′-fluoro-[1,1′-biphenyl]-4-yl)acetamido)-1,2-dihydroxypropyl)-4-hydroxy-5-(2-hydroxyacetamido)-2-((4-(prop-2-yn-1-yloxy)benzyl)oxy)tetrahydro-2H-pyran-2-carboxylic acid]: the Kd was 1 to 10 µM on cynomolgus Siglec-2/CD22, under 1 µM in assay [1] and 1 to 10 µM in assay [2].

As for `C#CCCCCCCS[C@]1(C(=O)O)C[C@H](O)[C@@H](NC(=O)CO)[C@H]([C@H](O)[C@H](O)CNC(=O)Cc2ccc(-c3ccc(O)cc3)cc2)O1` [Compound 49, (2S,4S,5R,6R)-6-((1R,2R)-1,2-dihydroxy-3-(2-(4′-hydroxy-[1,1′-biphenyl]-4-yl)acetamido)propyl)-4-hydroxy-5-(2-hydroxyacetamido)-2-(oct-7-yn-1-ylthio)tetrahydro-2H-pyran-2-carboxylic acid], the Kd (on cynomolgus Siglec-2/CD22; in assay [1]; in assay [2]) was under 1 µM throughout.

For the compound `C#CCCOc1ccc(CO[C@]2(C(=O)O)C[C@H](O)[C@@H](NC(=O)CO)[C@H]([C@H](O)[C@H](O)CNC(=O)Cc3ccc(-c4ccc(NC(C)=O)cc4)cc3)O2)cc1` [Compound 50, (2R,4S,5R,6R)-6-((1R,2R)-3-(2-(4′-acetamido-[1,1′-biphenyl]-4-yl)acetamido)-1,2-dihydroxypropyl)-2-((4-(but-3-yn-1-yloxy)benzyl)oxy)-4-hydroxy-5-(2-hydroxyacetamido)tetrahydro-2H-pyran-2-carboxylic acid], the Kd at cynomolgus Siglec-2/CD22 was 1 to 10 µM; in assay [1], under 1 µM; in assay [2], under 1 µM.

Consider `C#CCOc1ccc(CO[C@]2(C(=O)O)C[C@H](O)[C@@H](NC(=O)CO)[C@H]([C@H](O)[C@H](O)CNC(=O)Cc3ccc(-c4ccc(O)cc4)cc3OC)O2)cc1` [Compound 51, (2R,4S,5R,6R)-6-((1R,2R)-1,2-dihydroxy-3-(2-(4′-hydroxy-3-methoxy-[1,1′-biphenyl]-4-yl)acetamido)propyl)-4-hydroxy-5-(2-hydroxyacetamido)-2-((4-(prop-2-yn-1-yloxy)benzyl)oxy)tetrahydro-2H-pyran-2-carboxylic acid], for which the Kd at cynomolgus Siglec-2/CD22 was 1 to 10 µM; in assay [1] it was under 1 µM; in assay [2], under 1 µM.

As for `C#CCOc1ccc(CO[C@]2(C(=O)O)C[C@H](O)[C@@H](NC(=O)CO)[C@H]([C@H](O)[C@H](O)CNC(=O)Cc3ccc(-c4ccc(O)cc4)cc3Cl)O2)cc1` [Compound 52, (2R,4S,5R,6R)-6-((1R,2R)-3-(2-(3-chloro-4′-hydroxy-[1,1′-biphenyl]-4-yl)acetamido)-1,2-dihydroxypropyl)-4-hydroxy-5-(2-hydroxyacetamido)-2-((4-(prop-2-yn-1-yloxy)benzyl)oxy)tetrahydro-2H-pyran-2-carboxylic acid], the results for the Kd (at cynomolgus Siglec-2/CD22; in assay [1]; in assay [2]) were 1 to 10 µM, under 1 µM and under 1 µM, respectively.

For `C#CCOc1ccc(-c2cn([C@]3(C(=O)O)C[C@H](O)[C@@H](NC(=O)CO)[C@H]([C@H](O)[C@H](O)CNC(=O)Cc4ccc(-c5ccc(O)cc5)cc4)O3)nn2)cc1` [Compound 53, (2R,4S,5R,6R)-6-((1R,2R)-1,2-dihydroxy-3-(2-(4′-hydroxy-[1,1′-biphenyl]-4-yl)acetamido)propyl)-4-hydroxy-5-(2-hydroxyacetamido)-2-(4-(4-(prop-2-yn-1-yloxy)phenyl)-1H-1,2,3-triazol-1-yl)tetrahydro-2H-pyran-2-carboxylic acid], the Kd is 1 to 10 µM at cynomolgus Siglec-2/CD22, under 1 µM in assay [1] and 1 to 10 µM in assay [2].

As for `O=C(Cc1ccc(-c2ccc(O)cc2)cc1)NC[C@@H](O)[C@@H](O)[C@@H]1O[C@](C(=O)O)(n2cc(-c3ccccc3O)nn2)C[C@H](O)[C@H]1NC(=O)CO` [Compound 54, (2R,4S,5R,6R)-6-((1R,2R)-1,2-dihydroxy-3-(2-(4′-hydroxy-[1,1′-biphenyl]-4-yl)acetamido)propyl)-4-hydroxy-5-(2-hydroxyacetamido)-2-(4-(2-hydroxyphenyl)-1H-1,2,3-triazol-1-yl)tetrahydro-2H-pyran-2-carboxylic acid], the Kd on cynomolgus Siglec-2/CD22 is 1 to 10 µM; in assay [1], under 1 µM; in assay [2], over 10 µM.
